The compound `COc1cccc(NC(=O)c2oc3ccc(Br)cc3c2NC(=O)c2cnoc2C)c1` [Example 183, 5-methyl-isoxazole-4-carboxylic acid [5-bromo-2-(3-methoxyphenylcarbamoyl)benzofuran-3-yl]amide] gave a melting point of 223 to 229 °C.
As to `C/C=C/C(=O)Nc1c(Cl)oc2ccc(Br)cc12` [Example 184, (E)-2-butenoic acid (5-bromo-2-chlorobenzofuran-3-yl)amide], the melting point lay in the range of 200 to 202 °C.
For `C/C=C/C(=O)Nc1c(C(C)=O)oc2c(OC)cccc12` [Example 185, (E)-2-butenoic acid (2-acetyl-7-methoxybenzofuran-3-yl)amide], the melting point was in the range of 165.7 to 168 °C.
With `CCN(CC)C(=O)/C=C(\C)c1ccc2oc(C(=O)Nc3cccc(OC)c3)c(NC(=O)c3cnoc3C)c2c1` [Example 186, (E)-5-methyl-isoxazole-4-carboxylic acid [5-((E)-2-diethylcarbamoyl-1-methylvinyl)-2-(3-methoxyphenylcarbamoyl)benzofuran-3-yl]amide] the figure was 204 to 206 °C.
With `C/C=C/C(=O)Nc1c(Cl)oc2c(OC)cccc12` [Example 187, (E)-2-butenoic acid (2-chloro-7-methoxybenzofuran-3-yl)amide] the figure was 216 to 217 °C; with `COc1cccc(NC(=O)c2oc3ccc(Br)cc3c2NC(=O)/C(C#N)=C(/C)O)c1` [Example 188, (Z)-5-bromo-3-(2-cyano-3-hydroxy-2-butenoylamino)benzofurane-2-carboxylic acid (3-methoxyphenyl)amide], 234.5 to 241.5 °C; with `CCN(CC)C(=O)/C=C(\C)c1ccc2oc(C(=O)Nc3cccc(OC)c3)c(NC(=O)/C(C#N)=C(/C)O)c2c1` [Example 189, 3-(2-cyano-3-hydroxy-(Z)-2-butenoylamino)-5-((E)-2-diethylcarbamoyl-1-methylvinyl)-benzofurane-2-carboxylic acid(3-methoxyphenyl)amide], 172 to 174 °C.
With `CC(=O)NC(C)c1cc2ccccc2o1` (stereo not shown) [Example 190, N-(1-benzofuran-2-ylethyl)acetamide], the melting point lay within 128 to 130 °C.
In turn, `COc1cccc2cc(C(C)NC(C)=O)oc12` (stereo not shown) [Example 191, N-[1-(7-methoxybenzofuran-2-yl)ethyl]acetamide] yielded a melting point of 90 to 91.8 °C.
The compound `C/C=C/C(=O)NC(C)c1cc2ccccc2o1` (stereo not shown) [Example 192, (E)-2-butenoic acid (1-(benzofuran-2-yl)ethyl)amide] showed a melting point of 98 to 100 °C.
For `CC(=O)c1oc2ccc(Br)cc2c1NC(=O)CC#N` [Example 193, N-(2-acetyl-5-bromobenzofuran-3-yl)-2-cyanoacetamide] the value was 214.4 to 215.1 °C; for `CC(=O)Nc1c(C(=O)/C=C/N(C)C)oc2ccc(Br)cc12` [Example 194, (E)-N-[5-bromo-2-(3-dimethylaminoacryloyl)benzofuran-3-yl]acetamide], 221.1 to 222 °C.
With `COc1ccc(/C=C/C(=O)c2oc3ccc(Br)cc3c2NC(=O)CCCl)cc1` [Example 195, (E)-N-{5-bromo-2-[3-(4-methoxyphenyl)-acryloyl]benzofuran-3-yl}-3-chloropropionamide] the figure was 170.7 to 172 °C; with `COc1ccc(/C=C/C(=O)c2oc3ccc(Br)cc3c2NC(=O)CNCc2ccccc2)cc1` [Example 196, (E)-2-benzylamino-N-{5-bromo-2-[3-(4-methoxyphenyl)acryloyl]benzofuran-3-yl}acetamide], 174.2 to 176.5 °C; with `N#CCC(=O)Nc1c(C(=O)c2ccc(Cl)cc2)oc2ccc(Br)cc12` [Example 197, N-[5-bromo-2-(4-chlorobenzoyl)benzofuran-3-yl]-2-cyanoacetamide], 245.4 to 249.5 °C.
In the case of `COc1cccc2c(NC(=O)CC#N)c(C(=O)c3ccc(Br)cc3)oc12` [Example 198, N-[2-(4-bromobenzoyl)-7-methoxybenzofuran-3-yl]-2-cyanoacetamide], the melting point lay within 312.2 to 348.6 °C.

In general, melting point refers to the temperature of the solid-liquid transition.

(Values after patent US7638540B2, “Benzofuran compound and medicinal composition containing the same” (The New Industry Research Organization, priority 2003, dated 2009).)
